Our source for the IC50 values is patent US10030047B2 (Hoffmann-La Roche Inc., priority 2015, dated 2018).

pIC50: −log10 of the molar value.

The assay has as its system A. baumannii strain ATCC17978. In words: 50% growth inhibitory concentration (IC50) determination, Iso-Sensitest broth. Type of assay: cell-based. Conditions: Acinetobacter baumannii; A. baumannii ATCC17978; Iso-Sensitest medium; OD 600 nm over 16 h; read-out: IC50 ATCC17978. The method, then: The in vitro antimicrobial activity of the compounds was alternatively determined according to the following procedure:
The assay used a 10-points Iso-Sensitest broth medium to measure quantitatively the in vitro activity of the compounds against A. baumannii ATCC 17978.
Stock compounds in DMSO were serially twofold diluted (e.g. range from 50 to 0.097 μM final concentration) in 384 wells microtiter plates and inoculated with 49 μl the bacterial suspension in Iso-Sensitest medium to have a final cell concentration of ˜5×10^(5) CFU/ml in a final volume/well of 50 ul/well. Microtiter plates were incubated at 35±2° C.
Bacterial cell growth was determined with the measurement of optical density at λ=600 nm each 20 minutes over a time course of 16 h.
Growth inhibition was calculated during the logarithmic growth of the bacterial cells with determination of the concentration inhibiting 50% (IC50) and 90% (IC90) of the growth.
Tables 3, 4 and 5 provide the 50% growth inhibitory concentrations (IC50) in micromoles per liter of the compounds of present invention obtained against the A. baumannii strain ATCC17978.
As a reminder, the pIC50 is the IC50 on a negative log10 scale, so that one unit is a factor of ten. For `CN1C(=O)[C@H](CCCCN)NC(=O)[C@H](CCCN)NCc2ccccc2Sc2c(-c3ccncc3)ncc(Cl)c2CNC(=O)[C@@H]1Cc1c[nH]c2ccccc12` [Example 195], the pIC50 was 5.52.

Regarding `COc1cc(-c2ncc(Cl)c3c2Sc2ccccc2CN[C@@H](CCCN)C(=O)N[C@@H](CCCCN)C(=O)N(C)[C@@H](Cc2c[nH]c4ccccc24)C(=O)NC3)ccn1` [Example 196], the pIC50 is 7.00.

For the compound `CN1C(=O)[C@H](CCCCN)NC(=O)[C@H](CCCN)NCc2cccnc2Sc2ccc(Br)nc2CNC(=O)[C@@H]1Cc1c[nH]c2ccccc12` [Example 197, (7S,10S,13S)-13-((1H-Indol-3-yl)methyl)-10-(4-aminobutyl)-7-(3-aminopropyl)-18-bromo-12-methyl-6,7,9,10,12,13,15,16-octahydrodipyrido[2,3-b:2′,3′-p][1,5,8,11,14]thiatetraazacycloheptadecine-8,11,14(5H)-trione], the pIC50 is 6.70.

For the compound `CN1C(=O)[C@H](CCCCN)NC(=O)[C@H](CCCN)NCc2ccccc2Sc2c(-c3ccnc(C(F)(F)F)c3)ncc(Cl)c2CNC(=O)[C@@H]1Cc1c[nH]c2ccccc12` [Example 198], the pIC50 was 6.52.

As for `CN1C(=O)[C@H](CCCCN)NC(=O)[C@H](CCCN)NCc2ccccc2Sc2c(N3CCOCC3)ncc(Cl)c2CNC(=O)[C@@H]1Cc1c[nH]c2ccccc12` [Example 201], the pIC50 is 6.40.

Regarding `CN1C(=O)[C@H](CCCCN)NC(=O)[C@H](CCCN)NCc2cc(Br)ccc2Sc2c(Cl)cccc2CNC(=O)[C@@H]1Cc1c[nH]c2ccccc12` [Example 206, (12S,15S,18S)-15-(4-Amino-butyl)-18-(3-amino-propyl)-23-bromo-4-chloro-12-(1H-indol-3-ylmethyl)-13-methyl-2-thia-10,13,16,19-tetraaza-tricyclo[19.4.0.0*3,8*]pentacosa-1(25),3,5,7,21,23-hexaene-11,14,17-trione], the pIC50 was 5.85.

Take `CN1C(=O)[C@H](CCCCN)NC(=O)[C@H](CCCN)NCc2cc(-c3ccccc3)ccc2Sc2c(Cl)cccc2CNC(=O)[C@@H]1Cc1c[nH]c2ccccc12` [Example 207, (12S,15S,18S)-15-(4-Amino-butyl)-18-(3-amino-propyl)-4-chloro-12-(1H-indol-3-ylmethyl)-13-methyl-23-phenyl-2-thia-10,13,16,19-tetraaza-tricyclo[19.4.0.0*3,8*]pentacosa-1(25),3,5,7,21,23-hexaene-11,14,17-trione]: the pIC50 is 5.05.

On to `CN1C(=O)[C@H](CCCCN)NC(=O)[C@H](CCCN)NCc2cc(-c3cccnc3)ccc2Sc2c(Cl)cccc2CNC(=O)[C@@H]1Cc1c[nH]c2ccccc12` [Example 208, (12S,15S,18S)-15-(4-Amino-butyl)-18-(3-amino-propyl)-4-chloro-12-(1H-indol-3-ylmethyl)-13-methyl-23-pyridin-3-yl-2-thia-10,13,16,19-tetraaza-tricyclo[19.4.0.0*3,8*]pentacosa-1(25),3,5,7,21,23-hexaene-11,14,17-trione], for which the pIC50 was 4.90.

Turning to `Cc1cc(-c2ccc3c(n2)CNC(=O)[C@H](Cc2c[nH]c4ccccc24)N(C)C(=O)[C@H](CCCCN)NC(=O)[C@H](CCCN)NCc2cccnc2S3)ccn1` [Example 215, (7S,10S,13S)-13-((1H-Indol-3-yl)methyl)-10-(4-aminobutyl)-7-(3-aminopropyl)-12-methyl-18-(2-methylpyridin-4-yl)-6,7,9,10,12,13,15,16-octahydrodipyrido[2,3-b:2′,3′-p][1,5,8,11,14]thiatetraazacycloheptadecine-8,11,14(5H)-trione], the negative-log IC50 (pIC50) was 5.70.

For `CN1C(=O)[C@H](CCCCN)NC(=O)[C@H](CCCN)NCc2cc(-c3ccc(CN)cc3)ccc2Sc2c(Cl)cccc2CNC(=O)[C@@H]1Cc1c[nH]c2ccccc12` [Example 216, (12S,15S,18S)-15-(4-Amino-butyl)-23-(4-aminomethyl-phenyl)-18-(3-amino-propyl)-4-chloro-12-(1H-indol-3-ylmethyl)-13-methyl-2-thia-10,13,16,19-tetraaza-tricyclo[19.4.0.0*3,8*]pentacosa-1(25),3,5,7,21,23-hexaene-11,14,17-trione], the negative-log IC50 (pIC50) was 6.15.
